Source: patent US20220409510A1, “Polypeptides And Methods For Improving Skin Conditions” (Interk Peptide Therapeutics Limited, priority 2018, published 2022)

What was measured:
primary keratinocytes = assay: ATP levels in primary keratinocytes exposed to ssUV (CellTiter-Glo 2.0 Assay); type: cell-based; conditions: 1.5 hours after UVR, FIG. 4
Description: The influence of the polypeptide IK34720 (SEQ ID NO: 3) on intracellular ATP following UV exposure was assessed using the following protocol.
Primary keratinocytes were harvested as described above in Example 2 and were either exposed to ssUV-irradiation (UVR), as described above in Example 2 or not irradiated (SHAM), in the presence or absence of Calcitriol (positive control) or polypeptide IK34720 (SEQ ID NO: 3; RSKAKNPLYRRRRRRRRR), at the concentrations described in Example 2.
ATP levels were determined 1.5 hours after UVR using the CellTiter-Glo® 2.0 Assay (Promega, Wis., USA) as described previously (Rybchyn et al., vide supra, 2017). All data in FIG. 4 is shown as mean±SD. *p<0.05, **p<0.01. Cells were prepared and irradiated as described above.

[1] = tested on: 8-OHdG formation in the skin; assay: UV-induced oxidative stress (8-OHdG/8oxodG immunohistochemistry) in mouse skin; type: in vivo, Skh:hr1 hairless mice; conditions: topical immediately after 3 MED UVR; IK34720 20, 100 or 200 μg, Calcitriol 11.4 pmol/cm2; 3 h post-UVR; vs vehicle
Description: 8-hydroxy-2′-deoxyguanosine or 8-oxo-7,8-dihydro-2′-deoxyguanosine (8-OHdG/8-oxodG) is one of the predominant forms of free radical-induced in oxidative lesions with the concentrations of 8-OHdG within a cell being a measurement of oxidative stress. The role of the polypeptide IK34720 (SEQ ID NO: 3) in UV-induced oxidative stress was assessed using the following protocol.
Female Skh:hr1 hairless mice were exposed to solar simulated UV-irradiation (UVR) by exposure to one fluorescent UVB tube (Philips TL40W 12R/S, Eindhoven, The Netherlands) in combination with 6 UVA tubes (Hitachi 40W F40T 10/BL, Tokyo, Japan). The UVA and UVB irradiation was filtered through a 0.125 mm cellulose acetate sheet (Grafix Plastics, Cleveland, Ohio) as previously described (Dixon KM et al., Biochem Mol Biol, 2007, 103(3-5):451-6). […]
Biopsies were taken from UV-irradiated dorsal skin 3 h post-UVR and fixed in Histochoice fixative (Amresco, Solon Ohio) for 6 h. […] Sections were subjected to routine hematoxylin and eosin staining for visualization of sunburn cells at 40× magnification, and the number of sunburn cells per linear millimetre of skin section recorded.
Levels of 8-oxo-2′-deoxyguanosine (8oxodG) indicative of oxidative stress were detected by immunohistochemistry and image analysis (Dixon KM et al., Cancer Prey Res 2011, 4(9):1485-94) as set out below. […]

CREB-S133 = assay: CREB phosphorylation in primary keratinocytes after solar simulated UV-irradiation (western blot); type: cell-based; conditions: 0.1, 1 and 5 μM added immediately after ssUV, FIG. 3A
Description: The influence of the polypeptide IK34720 (SEQ ID NO: 3) on CREB phosphorylation was assessed using the following protocol.
Keratinocytes were harvested and cultured as previously described (Gupta et al., J Invest Dermatol, 2007, 127(3):707-215). Keratinocytes, (passages 1-5) from 3 independent donors were used in the experiments illustrated in FIG. 3.
Positive control treatment (denoted “D” in FIG. 3) was prepared by solubilizing Calcitriol (1,25-dihydroxyvitamin D3 (1,25(OH)2D3)—Cayman Chemical, Mich., USA) in 100% spectroscopic ethanol (Merck, Darmstadt, Germany) and the final concentration was determined by spectroscopy (NanoDrop 2000, Thermo Fisher Scientific, Mass., USA). The polypeptide IK34720 (SEQ ID NO: 3) was solubilised in phosphate buffered saline (PBS) to a concentration of 1 mM at pH 7.2. A vehicle (denoted as “V” in FIG. 3) constituting 0.1% (v/v) spectroscopic ethanol and 0.1% (v/v) PBS was prepared for use as a negative control.
Cultured cells were irradiated by solar simulated UV-irradiation (ssUV) using an Oriel 1000W xenon-arc lamp (Stratford, Conn., USA). Irradiation was administered at an energy level of 400 mJ/cm^2 for UVB and 3600 mJ/cm^2 for UVA (total 4000 mJ/cm^2), measured by an OL754 radiometer (Optronics Laboratories Inc., Orlando, Fla.). This dosage equates to approximately 4 min irradiation of the sun at 12 noon in October in Sydney, Australia. […]

Which results are given for “RSKAKNPLYRRRRRRRRR [IK34720, 18-residue polypeptide: … with a C-terminal polyarginine region of 8 arginines]”?
ATP levels (primary keratinocytes): enhanced the ATP levels; 8-OHdG formation in the skin [1]: inhibits 8-OHdG formation; UV-induced phosphorylation of CREB S-133 (CREB-S133): inhibits UV-induced phosphorylation of serine at position 133 of CREB
